In data set [1] the target is T1, glucocerebrosidase (Gcase) (Homo sapiens, UniProt P04062).
T1 construct: micellar solution containing 10 nM GCase and 100 nM saposin C
T1 sequence (P04062 40-536): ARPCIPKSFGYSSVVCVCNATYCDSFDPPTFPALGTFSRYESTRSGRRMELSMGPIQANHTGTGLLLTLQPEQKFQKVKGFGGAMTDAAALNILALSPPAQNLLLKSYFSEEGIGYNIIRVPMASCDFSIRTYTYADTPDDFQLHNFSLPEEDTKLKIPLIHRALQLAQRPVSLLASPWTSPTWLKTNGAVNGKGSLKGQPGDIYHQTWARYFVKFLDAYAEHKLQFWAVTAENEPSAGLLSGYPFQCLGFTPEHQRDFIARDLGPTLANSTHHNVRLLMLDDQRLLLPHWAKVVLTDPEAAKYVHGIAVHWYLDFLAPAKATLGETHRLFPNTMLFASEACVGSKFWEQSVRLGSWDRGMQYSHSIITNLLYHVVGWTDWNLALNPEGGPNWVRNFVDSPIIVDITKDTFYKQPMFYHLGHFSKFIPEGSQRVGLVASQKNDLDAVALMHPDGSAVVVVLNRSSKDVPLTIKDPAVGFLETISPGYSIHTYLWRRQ
The data set can be described thus: Glucocerebrosidase (Gcase) activation assay, 4-methylumbelliferyl-beta-D-glucopyranoside substrate, fluorescence readout. The class given is biochemical. Conditions: for activation at 0.1 µM: read-out: Percent Gcase Activation, 0.1 μM Test Compound; for activation at 1 µM: read-out: Percent Gcase Activation, 1 μM Test Compound. The procedure, abridged: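 Test compounds are first screened at 1.0 and 0.1 μM final, then titrated in 8 points (3-fold from 5 μM) against human GCase with saposin C in phosphatidylserine/triton X-100 micelles at pH 4.7. Reactions run 15 min at room temperature, with fluorescence read at 365/440 nm.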

The nature of data set [2]: Compound solubility in water. Conditions: water; for solubility: Compound Solubility in Water.

21 compounds from patent publication US11351173B2, “Substituted pyrrolo[1,2-a]pyrimidines and their use in the treatment of medical disorders” (Bial—R&D Investments, S.A., priority 2014, dated 2022) can be followed below.

SMILES strings stand for the structures. ≈ marks a conversion by molar mass, not a printed value.

For `COc1cc(-c2cocn2)ccc1NC(=O)c1ccn2c(C)cc(C)nc12` [III-109], the activation at 0.1 µM in data set [1] (test compound at 0.1 μM) was over 20%. In data set [1] (test compound at 1.0 μM), the activation at 1 µM is over 60%. In addition, the concentration in solution in data set [2] (solubility) was 0.1 µg/mL (≈ 0.276 µM).

With `COc1cc(-c2cnco2)ccc1NC(=O)c1ccn2c(C)cc(C)nc12` [III-110], the activation at 0.1 µM in data set [1] (test compound at 0.1 μM) is over 20%. In addition, the activation at 1 µM in data set [1] (test compound at 1.0 μM) was over 60%. The solubility (as a rule, the dissolved amount per volume that the medium holds) in data set [2] turned out to be 0.4 µg/mL (≈ 1.1 µM).

Consider `Cc1cc(C)n2ccc(C(=O)NC3CCc4nc(C)sc4C3)c2n1` (stereo not shown) [III-111], for which the activation at 0.1 µM in data set [1] (test compound at 0.1 μM) was under 10%. For the same compound, the activation at 1 µM in data set [1] (test compound at 1.0 μM) is under 30%. Besides, the concentration in solution in data set [2] (solubility) was 30.6 µg/mL (≈ 89.9 µM).

Consider `Cc1cc(C)n2ccc(C(=O)NC3CCC4(CCCCO4)CC3)c2n1` (stereo not shown) [III-112], for which the activation at 0.1 µM in data set [1] (test compound at 0.1 μM) was under 10%. The compound also returned a solubility in data set [2] of 30.4 µg/mL (≈ 89 µM).

As for `Cc1cc(C)n2ccc(C(=O)NC3CCC4(CCCCO4)CC3)c2n1` (stereo not shown) [III-113], in data set [1] (test compound at 0.1 μM), the “Percent Gcase Activation, 0.1 μM Test Compound” value is “* (less than 10% Gcase activation)”. Also, the “Percent Gcase Activation, 1 μM Test Compound” value in data set [1] (test compound at 1.0 μM) is on record as “+++ (Gcase activation greater than 60%)”. Further, the “Compound Solubility in Water” value in data set [2] is 19.7 µg/mL.

`CCCOC[C@H]1CC[C@H](NC(=O)c2ccn3c(C)cc(C)nc23)CC1` [III-114]: the activation at 0.1 µM in data set [1] (test compound at 0.1 μM) was over 20%. Moreover, the activation at 1 µM in data set [1] (test compound at 1.0 μM) is over 60%. The concentration in solution in data set [2] (solubility) was 1.3 µg/mL (≈ 3.78 µM).

Regarding `Cc1cc(C)n2ccc(C(=O)NC3CCN(c4ccsc4)CC3)c2n1` [III-115], in data set [1] (test compound at 0.1 μM), the activation at 0.1 µM is under 10%. Besides, the activation at 1 µM in data set [1] (test compound at 1.0 μM) lay in the range of 30 to 60%. The same compound yielded a solubility in data set [2] of 1.9 µg/mL (≈ 5.36 µM).

As to `Cc1cc(C)n2ccc(C(=O)Nc3ccc(-c4cccs4)cn3)c2n1` [III-116], in data set [1] (test compound at 0.1 μM), the activation at 0.1 µM is over 20%. The activation at 1 µM in data set [1] (test compound at 1.0 μM) is over 60%. In data set [2], this compound had a solubility of 0.003 µg/mL (≈ 0.00861 µM).

Turning to `Cc1cc(C)n2ccc(C(=O)Nc3ccc(-c4ccco4)cc3)c2n1` [III-117], in data set [1] (test compound at 0.1 μM), the activation at 0.1 µM is over 20%. Also, the activation at 1 µM in data set [1] (test compound at 1.0 μM) is over 60%. Besides, the “Compound Solubility in Water” value in data set [2] amounted to 0.02 µg/mL.

For the compound `Cc1cc(C)n2ccc(C(=O)NC3(C)CCOc4cccc(F)c43)c2n1` (stereo not shown) [III-118], the activation at 0.1 µM in data set [1] (test compound at 0.1 μM) is over 20%. In addition, in data set [1] (test compound at 1.0 μM), the activation at 1 µM is over 60%. Also, the solubility in data set [2] worked out at 1.4 µg/mL (≈ 3.96 µM).

In the case of `COC1CCc2ccc(NC(=O)c3ccn4c(C)cc(C)nc34)cc21` (stereo not shown) [III-119], the activation at 0.1 µM in data set [1] (test compound at 0.1 μM) was over 20%. For the same compound, in data set [1] (test compound at 1.0 μM), the activation at 1 µM was over 60%. In data set [2], this compound registered a solubility of 2.6 µg/mL (≈ 7.75 µM).

On to `Cc1cc(C)n2ccc(C(=O)Nc3ccc4c(c3)C(Oc3cccnc3)CC4)c2n1` (stereo not shown) [III-120], for which the activation at 0.1 µM in data set [1] (test compound at 0.1 μM) is over 20%. In addition, the activation at 1 µM in data set [1] (test compound at 1.0 μM) was over 60%. Also, the solubility in data set [2] is 0.1 µg/mL (≈ 0.251 µM).

In the case of `Cc1cc(C)n2ccc(C(=O)Nc3ccc4c(c3)C(Oc3ccccn3)CC4)c2n1` (stereo not shown) [III-121], the activation at 0.1 µM in data set [1] (test compound at 0.1 μM) was under 10%. Besides, the activation at 1 µM in data set [1] (test compound at 1.0 μM) was 30 to 60%. Besides, the solubility in data set [2] stood at 0.2 µg/mL (≈ 0.502 µM).

For `Cc1cc(C)n2ccc(C(=O)NC3CCCc4ccc(-c5cocn5)cc43)c2n1` (stereo not shown) [III-122], the activation at 0.1 µM in data set [1] (test compound at 0.1 μM) is 10 to 20%. Besides, the activation at 1 µM in data set [1] (test compound at 1.0 μM) is over 60%. In data set [2], this compound returned a solubility of 0.8 µg/mL (≈ 2.07 µM).

For the compound `Cc1cc(C)n2ccc(C(=O)NCC3CCC4(CCCCO4)CC3)c2n1` (stereo not shown) [III-123], the activation at 0.1 µM in data set [1] (test compound at 0.1 μM) was under 10%. In data set [1] (test compound at 1.0 μM), the activation at 1 µM was over 60%. In addition, the solubility in data set [2] amounted to 19.4 µg/mL (≈ 54.6 µM).

`CC[C@@H](NC(=O)c1ccn2c(C)cc(C)nc12)c1ccccc1` [III-124]: the activation at 0.1 µM in data set [1] (test compound at 0.1 μM) was over 20%. Also, the activation at 1 µM in data set [1] (test compound at 1.0 μM) was over 60%. In data set [2], this compound came in with a solubility of 1.2 µg/mL (≈ 3.9 µM).

Take `CC[C@H](C)O[C@H]1CC[C@H](NC(=O)c2ccn3c(C)cc(C)nc23)CC1` [III-125]: the activation at 0.1 µM in data set [1] (test compound at 0.1 μM) fell in the range of 10 to 20%. The activation at 1 µM in data set [1] (test compound at 1.0 μM) is over 60%. Moreover, the solubility in data set [2] stood at 11.1 µg/mL (≈ 32.3 µM).

For the compound `Cc1cc(C)n2ccc(C(=O)NC34CCC(CC3)c3ccccc34)c2n1` [III-126], in data set [1] (test compound at 0.1 μM), the activation at 0.1 µM was over 20%. For the same compound, the activation at 1 µM in data set [1] (test compound at 1.0 μM) is over 60%. The same compound returned a solubility in data set [2] of 0.3 µg/mL (≈ 0.868 µM).

Take `C#Cc1ccc(NC(=O)c2ccn3c(C)cc(C)nc23)c(OC)c1` [III-129]: the activation at 0.1 µM in data set [1] (test compound at 0.1 μM) was over 20%. In data set [1] (test compound at 1.0 μM), the activation at 1 µM is over 60%. In data set [2], the concentration in solution (solubility) was 0.3 µg/mL (≈ 0.939 µM).

For the compound `Cc1cc(C)n2ccc(C(=O)NC3CCc4ccc(-c5cocn5)cc43)c2n1` (stereo not shown) [III-130], the activation at 1 µM in data set [1] (test compound at 1.0 μM) is over 60%. In data set [2], this compound returned a solubility of 0.5 µg/mL (≈ 1.34 µM).

In the case of `[2H]C1(NC(=O)c2ccn3c(C)cc(C)nc23)CCCc2ccccc21` (stereo not shown) [III-131], the activation at 0.1 µM in data set [1] (test compound at 0.1 μM) was over 20%. Also, the activation at 1 µM in data set [1] (test compound at 1.0 μM) was over 60%. The compound also showed a solubility in data set [2] of 3.4 µg/mL (≈ 10.6 µM).
